Test results: EP4512403A1, “NEUROPEPTIDE B AND W-RECEPTOR AS A TARGET FOR TREATING MOOD DISORDERS AND/OR CHRONIC STRESS” (Friedrich-Schiller-Universität Jena, priority 2023, dated 2025)
“Also recorded” adds a separate entry of the source.

What was measured:
[1] = system: mice; assay: Sucrose preference after CVS and ligand microinfusion; format: in vivo; conditions: tested app. 24 h after microinfusion
Method: (§1) AAVs, stereotaxic surgery and microinjection.
(§2) Behavioral tests and CVS. The acute behavioral tests forced swim test, tail suspension test, sucrose preference, splash test and novelty suppressed feeding were performed as described ^13,23. After CVS, no tail suspension test was conducted, as tail suspension is part of the stress-induction protocol. For CVS-groups, caffeine was injected at the last day of CVS (day 21), just prior to the stressor. The CVS-protocol was performed as described ^13. […] Stressors consist of one hour of either, tube restraint, tail suspension or 100 mild electric random […]. If only female experimenters were present, a used male t-shirt was wrapped in clean protective clothing from the animal unit and placed into the experimental room in order to avoid variability due to sex-specific scents of the scientists ^24. All experiments were conducted in the light phase of the light-cycle to allow comparability with previous experiments ^22.

[2] = system: mice; conditions: acute microinfusion into NAc
Method: Drugs and chemicals. Mice were intraperitoneally (i.p.) injected with 7.5 mg/kg caffeine (#, C0750, Sigma) or saline at an injection volume of 10ml/kg body weight and tested 2 or 24 h later.
In order to address the rapid acting aspects of the Npbwrl-pathway, ligands were microinjected into the NAc that activate (NPB) or inhibit (CYM50769) Npbwr1. While NPB is a natural neurotransmitter, CYM50769 is a synthetic ligand, which has not been tested in vivo. […] Doses of 0.1 µM, 1 µM and 10 µM CYM50769 were injected and mice were scored for health markers for 7 days.

[3] = system: Bcl2; assay: qPCR of apoptosis marker Bcl2 after microinfusion into the NAc; format: in vivo, mice; conditions: 1nmolar NPB or 1 µmolar CYM50769 into NAc, tissue 24 h later
Description: (§3) RNA purification and quantification. […] RNA was washed in isopropanol and 75% Ethanol. […] Primer sequences are listed in the supplementary material. Quantitative PCR results were processed as described ^22.
as §1

[4] = system: Per2; assay: qPCR of circadian gene Per2 after microinfusion into the NAc; format: in vivo, mice; conditions: 1nmolar NPB or 1 µmolar CYM50769 into NAc, tissue 24 h later
Description: as §3, §1

[5] = system: mice; assay: Tests for depressive-like behavior (forced swim, splash, sucrose preference) 24 h after ligand microinjection; format: in vivo; conditions: 24 h later; for behavioral effects of CVS: CVS mice, 1 nM NPB or 1 µM CYM50769 into NAc after last stress session; for depressive-like behaviors: naïve mice, 1 nM NPB or 1 µM CYM50769 into NAc
Method: as §1, §2
Next, the rapid effects of Npbwr1 activity were tested on depressive-like behaviors in vivo. To that end, mice underwent CVS and were microinjected with 1 nM NPB and 1 µm CYM50769 after the last session of stress induction. Behavioral tests were conducted 24 h later. […] In contrast, CYM50769 had no effects in naïve mice.

[6] = system: Casp3; assay: qPCR of apoptosis marker Casp3 after microinfusion into the NAc; format: in vivo, mice; conditions: 1nmolar NPB or 1 µmolar CYM50769 into NAc, tissue 24 h later
Description: as §3, §1

[7] = system: mice; assay: Forced swim test after CVS and ligand microinfusion; format: in vivo; conditions: microinfused after last stress induction, tested app. 24 h later
Method: as §2, with “Drugs” for “Behavioral tests”, “chemicals. […]” for “CVS. The acute behavioral tests forced swim test, tail suspension test, sucrose preference, splash test and novelty suppressed feeding were performed as described ^13,23.”, “For CVS-groups, caffeine was injected at the last day of CVS (day 21), just prior to the stressor.” left out

[8] = system: Bdnf; assay: Bdnf qPCR after microinfusion of Npbwr1 ligands into the NAc; format: in vivo, mice
Description: as §3, §1

[9] = system: mice; assay: Splash test after CVS and ligand microinfusion; format: in vivo; conditions: tested app. 24 h after microinfusion
Method: as §2, with “Drugs” for “Behavioral tests”, “chemicals. […]” for “CVS. The acute behavioral tests forced swim test, tail suspension test, sucrose preference, splash test and novelty suppressed feeding were performed as described ^13,23.”, “For CVS-groups, caffeine was injected at the last day of CVS (day 21), just prior to the stressor.” left out

[10] = system: Npbwr1; assay: Npbwr1 expression in NAc after caffeine (RNA-sequencing, qPCR); format: in vivo, mice
Description: as §3
(§4) Next-generation RNA-sequencing. An in-house RNA-sequencing analysis pipeline was applied as described ^25. After artificial depletion of ribosomal RNA (rRNA) transcripts from the data set, more than 90% of reads aligned to the reference genome GRCm38, indicating excellent sample quality. Only changes that reached an adjusted P-value < 0.05 and a log2FC 0.5 <> - 0.5 were further considered.
(§5) To determine caffeine-regulate transcripts, next-generation RNA-sequencing 2h after caffeine-injection on NAc of wildtype (WT) and T75A mice were performed. Tissue was collected at four time points along the diurnal clock ^14. As expected, significant changes in circadian markers were observed, which oscillated in the expected manner across the four measured time points (Per1, Per2, Cry1, Bmal), both in WT and T75A-DARPP-32 mutant mice (Figure 3). […] Altered transcripts belonged to a variety of cellular signaling pathways, including synaptic transmission, transcriptional regulation and hormonal signaling (Figure 4C).

[11] = system: NAc dendritic spines; assay: NAc dendritic spine analysis after CVS and caffeine; format: in vivo, mice
Description: as §1
Dendritic spine analysis. The analysis was based on detecting the AAVs' GFP-fluorophores. Photos of 40 µm PFA-fixed brain sections were taken with a Zeiss LSM 880 confocal microscope using the AiryScan method. Maximum intensity projections were obtained using Zen Black and Zen Blue software and analysed in NeuronStudio (CNIC, Mount Sinai School of Medicine). The total density of spines, proportions of thin, mushroom and stubby spines as well as the cumulative neck-length were determined in Graph Prism. Neck-containing mushroom density refer to the sum of thin and mushroom spine densities.

[12] = system: mice; conditions: both sexes; reference 14; cited from earlier work
[13] = system: circadian genes; assay: Read-counts of circadian genes (Per1, Per2, Cry, Bmal) after caffeine; format: in vivo, mice; conditions: normalized read-counts for Per1, Per2, Cry, 2h after caffeine
Method: as §4, §5

[14] = system: NAc of wildtype (WT) and DARPP-32-T75A mutant mice; assay: RNA-sequencing of NAc 2h after caffeine injection; format: in vivo; conditions: active and inactive phases
Method: as §4, §5

[15] = system: mice; assay: Behavioral tests after chronic variable stress (CVS), 24h after caffeine; format: in vivo; conditions: female mice after CVS, 7.5 mg/kg caffeine i.p., tested 24h later
Method: as §2

[16] = system: mice; assay: Escape behavior tests in naive WT and T75A mice 24h after caffeine; format: in vivo; conditions: naïve WT mice; 7.5 mg/kg caffeine in the dark phase; tested 24h later
Method: as §2

[17] = system: mouse brain; conditions: intracerebroventricular injection; reference 15; cited from earlier work
[18] = system: mice; assay: Splash test after CVS and ligand microinfusion; format: in vivo; conditions: naive mice; tested app. 24 h after microinfusion
Method: as §1, §2

[19] = system: mice; assay: Forced swim test after CVS and ligand microinfusion; format: in vivo; conditions: naive mice; 1 nM NPB or 1 µM CYM50769 into NAc; tested app. 24 h later
Method: as §1, §2

[20] = 1nmolar NPB or 1 µmolar CYM50769 microinfused into NAc, tissue collected 24 h later

Molecule: COc1ccc(Oc2c(Cl)cnn(C3c4ccccc4-c4ccccc43)c2=O)cc1 [CYM50769]
- Sucrose preference, CVS-effects [1]: rescues CVS-effects
- selectivity and tolerability of an acute dose [2]: selective and well tolerated
- Bcl2 (apoptosis marker) [3]: No effect; also recorded: Neither NPB nor CYM50769 affected
- Per2 (circadian gene) [4]: not affected; also recorded: did not alter
- behavioral effects of CVS [5]: rescued CVS-effects; also recorded: blocked those
- behavioral effects of CVS ([5]; listed as CYM5069): reversed effects of chronic stress on behavior
- depressive-like behaviors [5]: no effects
- Casp3 (apoptosis marker) [6]: does not alter; also recorded: Neither NPB nor CYM50769 affected
- Forced swim test, CVS-effects [7]: blocks CVS-effects
- Bdnf [8, 20]: increases Bdnf; also recorded: altered Bdnf-levels
- Bdnf ([8]; 1 µmolar CYM50769 microinfused into NAc, single dose, tissue collected 7 days later): persists at the 7 day time point
- Bdnf ([8]; 1 µmolar CYM50769 microinfused into NAc, single dose, tissue collected 7 days later, listed as CYM5069): altered Bdnf levels starting at 24h for up to 7 days
- Splash test, CVS-effects [9]: blocks CVS-effects

Molecule: Cn1c(=O)c2c(ncn2C)n(C)c1=O [caffeine]
- Npbwr1 levels ([10]; 24h after caffeine injection, dark phase): decreased; also recorded: reduced
- Npbwr1 expression ([10]; WT mice, 2h after caffeine injection, end of the dark phase): increased
- CVS-induced changes in NAc dendritic spines ([11]; females, 24h after caffeine injection): reversed by caffeine back to naive levels
- Cumulative head diameter ([11]; females, CVS, 24h after caffeine): reversed
- CVS-induced spine changes ([11]; males, CVS, caffeine): partially reversed
- Cumulative head diameter ([11]; males, CVS, caffeine): reversed
- mood-elevating effects [12]: only occurred in the active (dark) phase
- amplitude of circadian oscillations [13]: may slightly flatten the amplitude
- caffeine-induced transcriptional changes [14]: biggest effect of caffeine occurs in WT in the active phase; also recorded: occurred in WT in the active (dark) phase
- stress-induced behavioral changes [15]: reversed; also recorded: improved stress-induced behavioral changes
- Escape behaviors [16]: altered

Molecule: NPB: natural agonist of Npbwr1, a natural neurotransmitter; short biologically active peptide (#CSB-MP015971HU-100, Cusabio)
- feeding [17]: induced hyperphagia after 2 h, followed by hypophagia
- Sucrose preference, ratio of sucrose solution consumed ([1]; naive mice): reduce the ratio of sucrose solution consumed
- Splash test, grooming [18]: may reduce grooming
- Per2 (circadian gene) [4]: not affected; also recorded: did not alter
- behavioral effects of CVS [5]: not enhancing the behavioral effects of CVS further
- depressive-like behaviors [5]: elicited depressive-like behaviors; also recorded: increased depressive-like behaviors; also recorded: mimicked chronic stress effects
- Bdnf [8, 20]: decreases Bdnf; also recorded: altered Bdnf-levels; also recorded: opposing effect on Bdnf
- Forced swim test, immobility time [19]: increases immobility time
